Measured values taken from publication PMC4823704, “Trastuzumab-grafted PAMAM dendrimers for the selective delivery of anticancer drugs to HER2-positive breast cancer” (Scientific Reports, 2016).

Tests used:
[1] = tested on: MDA-MB-453 cells (HER2-positive); assay: Anti-proliferation assay (MTT); assay type: cell-based; conditions: Homo sapiens
Protocol: (§1) Cells were grown in DMEM medium supplemented with 10% fetal bovine serum, 100 U/mL penicillin, […] streptomycin and 2 mM/L L-glutamine. Cells were maintained at 37 °C in 5% CO2.
(§2) Cells were seeded in 96-well plates at a density of 5 × 10^3 cells per well in 100 μL of medium. […] Media were then replaced with serum-free DMEM containing MTT (0.5 mg/mL), then cells were incubated for 4 h. Media were removed and 150 μL of DMSO was added to dissolve formazan crystals. Absorbance was measured at 570 nm using a microplate reader. Untreated cells were used as a negative control (100% viability). IC50 was calculated by fitting the curve of cell viability against the drug concentration.

[2] = tested on: MDA-MB-231 cells (HER2-negative); assay: Anti-proliferation assay (MTT); assay type: cell-based, human
Protocol: as §1, §2

MDA-MB-453 cells = assay: Annexin V-FITC/PI apoptosis assay; assay type: cell-based, human; conditions: 56 ng/mL, 24 h
Protocol: To evaluate apoptosis and necrosis, we used Annexin V-FITC/PI assays, as per the manufacturer’s protocols. Briefly, MDA-MB-453 cells (1 × 10^6 cells/well) were seeded in six-well plates and maintained at 37 °C in 5% CO2 and a 95% humidified atmosphere. The medium was replaced with freshly prepared medium containing drug-loaded formulations. Untreated cells were used as controls. After 24 h, cells were washed twice with PBS and resuspended in 500 μL of binding buffer. We added 5 μL of FITC-conjugated Annexin V and 10 μL of PI, and incubated cells for 15 min at room temperature in the dark. Cells were then analyzed by a Muse™ Cell Analyzer (Merck-Millipore, Germany) and the extent of apoptosis and necrosis was determined.

[3] = patients, p = 0.03; cited from earlier work

Compound: CC(=O)O[C@@]12CO[C@@H]1C[C@H](O)[C@@]1(C)C(=O)[C@H](O)C3=C(C)[C@@H](OC(=O)[C@H](O)[C@@H](NC(=O)OC(C)(C)C)c4ccccc4)C[C@@](O)([C@@H](OC(=O)c4ccccc4)[C@H]21)C3(C)C [DTX, docetaxel]
- viability at 0.125 µg/mL ([1]; 125 ng/mL drug concentration, 48 h, MDA-MB-453, read-out: cell viability): 69%
- IC50 ([1]; MDA-MB-453, 48 h of incubation): > 0.25 µg/mL
- cell viability ([2]; 48 h, MDA-MB-231): 61.9%
- IC50 ([2]; Homo sapiens, MDA-MB-231, 48 h of incubation): > 0.25 µg/mL
- live cells (MDA-MB-453 cells): 83.1%
- total percentage of apoptotic cells (MDA-MB-453 cells): 16.5%
- survival [3]: 22.7 months
